Among the data in ChEMBL document CHEMBL1151385, “Antineoplastic Agents 78. Isolation of Palystatins 1-3 From the Indian Ocean Palythoa liscia” (J Nat Prod, 1982) are Activity values, retold here.

For one assay, the system named is P388. Description: In vivo cytotoxicity against mouse P388 cells assessed as life extension at 0.1 ug/kg. The assay is classed as functional, organism-based.
In a further assay the test system is Ehrlich. Description: In vivo cytotoxicity against mouse EAC cells. The assay is classed as functional, organism-based.

As for `C=C(/C=C\C[C@@H](O)[C@@H](O)[C@H](O)C/C=C/C=C\[C@@H](O)C[C@@H]1O[C@H](C[C@@H](O)[C@H](O)C[C@H]2O[C@H]([C@H](O)[C@H](O)CC[C@H](O)/C=C/[C@H](C)[C@@H](O)C[C@]3(O)O[C@H](C[C@@H](O)CCCCCCC[C@@]45C[C@@H](C)C[C@@](C)(O4)[C@@H](C[C@@H](C)CCCCC[C@@H](O)[C@H](O)[C@H](O)[C@@H](O)[C@H](O)[C@H]4O[C@H](C[C@H](O)[C@H](O)/C(C)=C/[C@H](O)C[C@@H](C)[C@H](O)C(=O)N/C=C/C(=O)NCCCO)[C@H](O)[C@@H](O)[C@@H]4O)O5)[C@H](O)[C@@H](O)[C@H]3O)C[C@@H](O)[C@@H]2O)[C@@H](O)[C@H](O)[C@H]1O)CC[C@H](O)[C@@H](O)[C@H](O)[C@H](C)C[C@H]1O[C@H](/C=C\[C@@H](O)CC[C@@H]2C[C@@H]3C[C@H](O2)[C@@H](CC[C@H]2O[C@H](CN)C[C@H]2O)O3)[C@@H](O)[C@H](O)[C@H]1O`, the Activity with P388 stood at 32%; in the assay with Ehrlich, 0.34 µg/kg.
